Patent US20220331327A1, “THE USE OF PARAXANTHINE TO IMPROVE PERFORMANCE IN VIDEO GAMERS” (priority 2021, published 2022)

What was measured:
[1] = system: healthy men and women playing video games; test: Stroop Color and Word Test during gaming; type: in vivo, human; settings: 200 mg daily
Description: The effectiveness of study-products (paraxanthine and placebo) was assessed by measuring in-game performance, cognition during gaming (Stroop Test) and mood status during gaming (Profile of Mood States (POMS)). The Stroop Color and Word Test (SCWT) was administered after 0, 3, and 6 six weeks of supplementation to assess cognitive performance during gaming throughout the study protocol. The Stroop Test was completed pre-dose, after 60 minutes of gaming and immediately after completing 120 minutes of video gaming during all study visits. The SCWT is a neuropsychological test that follows the procedures of Stroop (Stroop 1935). Briefly, the SCWT (with congruency) was administered for five continuous minutes via an online software application. One of four words (red, yellow, green, blue) appeared at random, until a selection was made, then a new word appeared at random. Subjects selected the response which matches the color of the ink of the randomly selected word (not the color that the word described). The number of correct answers served as the basis of a total Stroop score.

[2] = system: healthy men and women playing video games; test: Video game performance, Super Smash Brothers Ultimate; type: in vivo, human; design: Damage Taken, Mean of visit / Damage Taken, Mean ± SD: unit not given here; settings: 200 mg daily; for Damage Taken, Mean ± SD / Falls (Deaths), Mean ± SD / Hit Percentage, Mean ± SD / Damage Taken, Mean of visit / Falls (Deaths), Mean of visit / Hit Percentage, Mean of visit: n = 5; for Damage Taken, Mean of visit / Falls (Deaths), Mean of visit / Hit Percentage, Mean of visit: mean of 20-120 min; for Damage Taken, Δ Baseline / Falls (Deaths), Δ Baseline: versus baseline; for Damage Taken, Δ PLA / Falls (Deaths), Δ PLA: versus placebo
Description: The effectiveness of study-products (paraxanthine and placebo) was assessed by measuring in-game performance, cognition during gaming (Stroop Test) and mood status during gaming (Profile of Mood States (POMS)). All study participants played the game Super Smash Brothers Ultimate (Nintendo, Release date: Dec. 7, 2018). Each study participant arrived, completed all necessary testing and began playing the game. Game consoles and controllers were available, but if participants wanted to bring their own controller, they were allowed to do so. The game was be set to the same level and strategy for each player. During each session, study participants played the game for 60 minutes and took a break to complete the Stroop Test and POMS. Participants then played the game for an additional 60 minutes before completing their third tests. […]

[3] = gaming between 100 and 120 minutes of play

Cn1c(=O)[nH]c2ncn(C)c2c1=O [Paraxanthine, paraxanthine]
increase in cognitive performance (Stroop test score) compared to baseline ([1]; 3 weeks, after one hour of gaming): 39%
increase in cognitive performance (Stroop test score) compared to baseline ([1]; 3 weeks, after two hours of gaming): 89%
increase in cognitive performance (Stroop test score) compared to baseline ([1]; 3 weeks, pre-gaming): 25%
increase in cognitive performance (Stroop test score) compared to baseline ([1]; 6 weeks, after one hour of gaming): 89%
increase in cognitive performance (Stroop test score) compared to baseline ([1]; 6 weeks, after two hours of gaming): 119%
increase in cognitive performance (Stroop test score) compared to baseline ([1]; 6 weeks, pre-gaming): 25%
habituation ([1]; even after 6 weeks): No habituation was observed
Damage Taken, Mean ± SD ([2]; 3 weeks, 20 min): 870.00 ± 301.09
Falls (Deaths), Mean ± SD ([2]; 3 weeks, 20 min): 5.75 ± 2.63
Hit Percentage, Mean ± SD ([2]; 3 weeks, 20 min): 37.75 ± 9.64
Damage Taken, Mean ± SD ([2]; 3 weeks, 40 min): 1103.00 ± 253.95
Falls (Deaths), Mean ± SD ([2]; 3 weeks, 40 min): 8 ± 3.67
Hit Percentage, Mean ± SD ([2]; 3 weeks, 40 min): 35.8 ± 8.93
Damage Taken, Mean ± SD ([2]; 3 weeks, 60 min): 987.25 ± 396.60
Falls (Deaths), Mean ± SD ([2]; 3 weeks, 60 min): 7 ± 3.83
Hit Percentage, Mean ± SD ([2]; 3 weeks, 60 min): 38 ± 5.72
Damage Taken, Mean ± SD ([2]; 3 weeks, 80 min): 1351.80 ± 341.08
Falls (Deaths), Mean ± SD ([2]; 3 weeks, 80 min): 9 ± 3.32
Hit Percentage, Mean ± SD ([2]; 3 weeks, 80 min): 35.2 ± 8.17
Damage Taken, Mean ± SD ([2]; 3 weeks, 100 min): 1619.60 ± 383.27
Falls (Deaths), Mean ± SD ([2]; 3 weeks, 100 min): 11.4 ± 4.04
Hit Percentage, Mean ± SD ([2]; 3 weeks, 100 min): 29.4 ± 8.08
Damage Taken, Mean ± SD ([2]; 3 weeks, 120 min): 2006.60 ± 376.34
Falls (Deaths), Mean ± SD ([2]; 3 weeks, 120 min): 13 ± 3.74
Hit Percentage, Mean ± SD ([2]; 3 weeks, 120 min): 26.4 ± 3.51
Damage Taken, Mean of visit ([2]; 3 weeks): 1,323.0
Falls (Deaths), Mean of visit ([2]; 3 weeks): 9.0
Hit Percentage, Mean of visit ([2]; 3 weeks): 33.8
Damage Taken, Mean ± SD ([2]; 6 weeks, 20 min): 723.62 ± 457.07
Falls (Deaths), Mean ± SD ([2]; 6 weeks, 20 min): 5.2 ± 1.92
Hit Percentage, Mean ± SD ([2]; 6 weeks, 20 min): 28.09 ± 16.43
Damage Taken, Mean ± SD ([2]; 6 weeks, 40 min): 1077.40 ± 258.42
Falls (Deaths), Mean ± SD ([2]; 6 weeks, 40 min): 8 ± 2.74
Hit Percentage, Mean ± SD ([2]; 6 weeks, 40 min): 42.2 ± 12.46
Damage Taken, Mean ± SD ([2]; 6 weeks, 60 min): 1182.80 ± 317.56
Falls (Deaths), Mean ± SD ([2]; 6 weeks, 60 min): 7.4 ± 2.7
Hit Percentage, Mean ± SD ([2]; 6 weeks, 60 min): 39.4 ± 6.88
Damage Taken, Mean ± SD ([2]; 6 weeks, 80 min): 1425.80 ± 173.33
Falls (Deaths), Mean ± SD ([2]; 6 weeks, 80 min): 10 ± 2.55
Hit Percentage, Mean ± SD ([2]; 6 weeks, 80 min): 33 ± 5.43
Damage Taken, Mean ± SD ([2]; 6 weeks, 100 min): 1697.60 ± 336.71
Falls (Deaths), Mean ± SD ([2]; 6 weeks, 100 min): 13.2 ± 2.59
Hit Percentage, Mean ± SD ([2]; 6 weeks, 100 min): 30.4 ± 4.98
Damage Taken, Mean ± SD ([2]; 6 weeks, 120 min): 1921.80 ± 379.30
Falls (Deaths), Mean ± SD ([2]; 6 weeks, 120 min): 14.2 ± 3.56
Hit Percentage, Mean ± SD ([2]; 6 weeks, 120 min): 27.2 ± 4.15
Damage Taken, Mean of visit ([2]; 6 weeks): 1,338.2
Falls (Deaths), Mean of visit ([2]; 6 weeks): 9.7
Hit Percentage, Mean of visit ([2]; 6 weeks): 33.4
Damage Taken, Mean ± SD ([2]; Baseline visit, 20 min): 981.20 ± 457.06
Falls (Deaths), Mean ± SD ([2]; Baseline visit, 20 min): 7 ± 3.54
Hit Percentage, Mean ± SD ([2]; Baseline visit, 20 min): 36.6 ± 11.13
Damage Taken, Mean ± SD ([2]; Baseline visit, 40 min): 1306.75 ± 553.65
Falls (Deaths), Mean ± SD ([2]; Baseline visit, 40 min): 10.5 ± 5.26
Hit Percentage, Mean ± SD ([2]; Baseline visit, 40 min): 30.25 ± 11.15
Damage Taken, Mean ± SD ([2]; Baseline visit, 60 min): 1207.60 ± 425.74
Falls (Deaths), Mean ± SD ([2]; Baseline visit, 60 min): 8 ± 3.39
Hit Percentage, Mean ± SD ([2]; Baseline visit, 60 min): 34.6 ± 9.92
Damage Taken, Mean ± SD ([2]; Baseline visit, 80 min): 1527.80 ± 541.49
Falls (Deaths), Mean ± SD ([2]; Baseline visit, 80 min): 10.8 ± 4.97
Hit Percentage, Mean ± SD ([2]; Baseline visit, 80 min): 34.2 ± 8.23
Damage Taken, Mean ± SD ([2]; Baseline visit, 100 min): 1647.20 ± 359.67
Falls (Deaths), Mean ± SD ([2]; Baseline visit, 100 min): 11 ± 3.08
Hit Percentage, Mean ± SD ([2]; Baseline visit, 100 min): 30.6 ± 5.98
Damage Taken, Mean ± SD ([2]; Baseline visit, 120 min): 2067.80 ± 803.18
Falls (Deaths), Mean ± SD ([2]; Baseline visit, 120 min): 16.6 ± 8.59
Hit Percentage, Mean ± SD ([2]; Baseline visit, 120 min): 24.4 ± 4.28
Damage Taken, Mean of visit ([2]; Baseline visit): 1,460.9
Falls (Deaths), Mean of visit ([2]; Baseline visit): 10.65
Hit Percentage, Mean of visit ([2]; Baseline visit): 31.7
Damage Taken, Δ Baseline ([2]; 3 weeks): −9.4%
Falls (Deaths), Δ Baseline ([2]; 3 weeks): −15.5%
Damage Taken, Δ PLA ([2]; 3 weeks): −9.5%
Falls (Deaths), Δ PLA ([2]; 3 weeks): −21.7%
Damage Taken, Δ Baseline ([2]; 6 weeks): −8.4%
Falls (Deaths), Δ Baseline ([2]; 6 weeks): −8.9%
Damage Taken, Δ PLA ([2]; 6 weeks): −14.0%
Falls (Deaths), Δ PLA ([2]; 6 weeks): −15.6%
reduction of own damage taken compared to baseline (prior to supplementation) ([2]; after 3 weeks): 9.4%
reduction of own damage taken compared to placebo ([2]; after 3 weeks): 9.5%
reduction of own deaths compared to baseline (prior to supplementation) ([2]; after 3 weeks): 15.5%
reduction of own deaths compared to placebo ([2]; after 3 weeks): 21.7%
improvement over placebo, damage taken, later stages of gaming [2, 3]: 30.9%
improvement over placebo, number of deaths, later stages of gaming [2, 3]: 34%
